Source: the supplement of paper PMC10307832

Legend:
Assay in all cases: relative viability (nuclei count vs DMSO), 5 days (fraction); higher = more cells survive
[1] = test system: NCI-H1915
Method in brief: (§1)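 Relative viability is defined as nuclei in treated wells over nuclei in vehicle wells. Duplicate plates were run and medians reported. Lung cancer cell lines in 1536-well plates were dosed by pin tool one day after seeding, with one drug or with a fixed anchor-drug dose plus five library-drug doses (not always all listed) in √10 steps, and nuclei were counted after 5 days.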

[2] = test system: NCI-H1975
Method in brief: as §1

[3] = test system: NCI-H2126
Method in brief: as §1

[4] = test system: NCI-H2228
Method in brief: as §1

[5] = test system: NCI-H2347
Method in brief: as §1

[6] = test system: NCI-H647
Method in brief: as §1

[7] = test system: PC-3 [JPC-3]
Method in brief: as §1

[8] = test system: RERF-LC-KJ
Method in brief: as §1

[9] = test system: SK-LU-1
Method in brief: as §1

[10] = test system: SW 1573
Method in brief: as §1

Work on `COc1cc2nccc(Oc3ccc(NC(=O)Nc4cc(C)on4)c(Cl)c3)c2cc1OC` [Tivozanib] + CC(C)C[C@H](NC(=O)[C@H](Cc1ccccc1)NC(=O)c1cnccn1)B(O)O [Bortezomib] (partner 0.002 µM) yielded a relative viability ([1]; first compound 0.05 µM) of 0.952, a relative viability ([1]; first compound 0.1581 µM) of 0.921 and a relative viability ([1]; first compound 0.5 µM) of 0.884. The relative viability ([2]; first compound 0.005 µM) was 0.376, the relative viability ([2]; first compound 0.01581 µM) was 0.418 and the relative viability ([2]; first compound 0.05 µM) was 0.361. It also gave a relative viability ([2]; first compound 0.1581 µM) of 0.363, a relative viability ([2]; first compound 0.5 µM) of 0.257 and a relative viability ([3]; first compound 0.005 µM) of 1.1. It also gave a relative viability ([3]; first compound 0.01581 µM) of 1.07, a relative viability ([3]; first compound 0.05 µM) of 1.14 and a relative viability ([3]; first compound 0.1581 µM) of 0.811. It also gave a relative viability ([3]; first compound 0.5 µM) of 1.11, a relative viability ([4]; first compound 0.005 µM) of 0.86 and a relative viability ([4]; first compound 0.01581 µM) of 0.859. It also gave a relative viability ([4]; first compound 0.05 µM) of 1.02, a relative viability ([4]; first compound 0.1581 µM) of 0.887 and a relative viability ([4]; first compound 0.5 µM) of 0.972. It also gave a relative viability ([5]; first compound 0.005 µM) of 0.875, a relative viability ([5]; first compound 0.01581 µM) of 0.818 and a relative viability ([5]; first compound 0.05 µM) of 1.18. The relative viability ([5]; first compound 0.5 µM) was 0.986, the relative viability ([6]; first compound 0.005 µM) was 0.953 and the relative viability ([6]; first compound 0.01581 µM) was 0.886. The relative viability ([6]; first compound 0.05 µM) was 1.05, the relative viability ([6]; first compound 0.1581 µM) was 0.941 and the relative viability ([6]; first compound 0.5 µM) was 0.957. For the same compound, the relative viability ([7]; first compound 0.005 µM) was 0.82, the relative viability ([7]; first compound 0.01581 µM) was 0.855 and the relative viability ([7]; first compound 0.05 µM) was 0.847. For the same compound, the relative viability ([7]; first compound 0.1581 µM) was 0.835, the relative viability ([7]; first compound 0.5 µM) was 0.794 and the relative viability ([8]; first compound 0.005 µM) was 1.11. For the same compound, the relative viability ([8]; first compound 0.01581 µM) was 1.06, the relative viability ([8]; first compound 0.05 µM) was 1.11 and the relative viability ([8]; first compound 0.1581 µM) was 0.83. The relative viability ([8]; first compound 0.5 µM) was 1.03, the relative viability ([9]; first compound 0.005 µM) was 0.931 and the relative viability ([9]; first compound 0.01581 µM) was 1.26. It also gave a relative viability ([9]; first compound 0.05 µM) of 1.2, a relative viability ([9]; first compound 0.1581 µM) of 0.784 and a relative viability ([9]; first compound 0.5 µM) of 0.907. It also gave a relative viability ([10]; first compound 0.005 µM) of 1.02, a relative viability ([10]; first compound 0.01581 µM) of 1.01 and a relative viability ([10]; first compound 0.05 µM) of 0.936. It also gave a relative viability ([10]; first compound 0.1581 µM) of 0.772 and a relative viability ([10]; first compound 0.5 µM) of 0.831.
